Source: US9730944B2, “Antiviral activity of novel bicyclic heterocycles” (priority 2010, dated 2017)
In brackets after ≈: the same amount, converted by molar mass.

Assays:
hRV-2 = test: Rhinovirus type 2 antiviral assay in Hela Rh cells, MTS readout; format: cell-based, Human rhinovirus; details: Rhinovirus A, HRV2, HeLa Rh, Hela Rh cells; read-out: hRV-2 EC50
hRV-70 = test: Rhinovirus type 70 antiviral assay in Hela Rh cells, MTS readout; format: cell-based, Human rhinovirus; details: Human rhinovirus sp., HRV70, HeLa Rh, Hela Rh cells; read-out: hRV-70 EC50
hRV-85 = test: Rhinovirus type 85 antiviral assay in Hela Rh cells, MTS readout; format: cell-based, Human rhinovirus; details: Human rhinovirus sp., HRV85, HeLa Rh, Hela Rh cells; read-out: hRV-85 EC50
hRV-86 = test: Rhinovirus type 86 antiviral assay in Hela Rh cells, MTS readout; format: cell-based, Human rhinovirus; details: Human rhinovirus sp., HRV86, HeLa Rh, Hela Rh cells; read-out: hRV-86 EC50
[1] = Cytostatic/cytotoxic effect in Hela Rh cells (rhinovirus methodology, MTS); details: human, CC50, Hela Rh cells
hRV-15 = test: Rhinovirus type 15 antiviral assay in Hela Rh cells, MTS readout; format: cell-based, Human rhinovirus; details: Human rhinovirus sp., HRV15, HeLa Rh, Hela Rh cells; read-out: hRV-15 EC50
hRV-29 = test: Rhinovirus type 29 antiviral assay in Hela Rh cells, MTS readout; format: cell-based; details: Human rhinovirus sp., HRV29, HeLa Rh, Hela Rh cells; read-out: hRV-29 EC50
hRV-42 = test: Rhinovirus type 42 antiviral assay in Hela Rh cells, MTS readout; format: cell-based, Human rhinovirus; details: Human rhinovirus sp., HRV42, HeLa Rh, Hela Rh cells; read-out: hRV-42 EC50
hRV-45 = test: Rhinovirus type 45 antiviral assay in Hela Rh cells, MTS readout; format: cell-based, Human rhinovirus; details: Human rhinovirus sp., HRV45, HeLa Rh, Hela Rh cells; read-out: hRV-45 EC50
hRV-39 = test: Rhinovirus type 39 antiviral assay in Hela Rh cells, MTS readout; format: cell-based, Human rhinovirus; details: Human rhinovirus sp., HRV39, HeLa Rh, Hela Rh cells; read-out: hRV-39 EC50
hRV-14 = test: Rhinovirus type 14 antiviral assay in Hela Rh cells, MTS readout; format: cell-based, Human rhinovirus; details: Rhinovirus B, HRV14, HeLa Rh, Hela Rh cells; read-out: hRV-14 EC50
hRV-9 = test: Rhinovirus type 9 antiviral assay in Hela Rh cells, MTS readout; format: cell-based, Human rhinovirus; details: Human rhinovirus sp., HRV9, HeLa Rh, Hela Rh cells; read-out: hRV-9 EC50
hRV-41 = test: Rhinovirus type 41 antiviral assay in Hela Rh cells, MTS readout; format: cell-based, Human rhinovirus; details: Human rhinovirus sp., HRV41, HeLa Rh, Hela Rh cells; read-out: hRV-41 EC50
hRV-63 = test: Rhinovirus type 63 antiviral assay in Hela Rh cells, MTS readout; format: cell-based, Human rhinovirus; details: Human rhinovirus sp., HRV63, HeLa Rh, Hela Rh cells; read-out: hRV-63 EC50
hRV-72 = test: Rhinovirus type 72 antiviral assay in Hela Rh cells, MTS readout; format: cell-based, Human rhinovirus; details: Human rhinovirus sp., HRV72, HeLa Rh, Hela Rh cells; read-out: hRV-72 EC50

COc1cccc(CCc2nc3c(N4CCN(C(=O)COc5ccc(Br)cc5)CC4)nc(N)nc3s2)c1 [Example 254, 1-(4-(5-amino-2-(3-methoxyphenethyl)thiazolo[5,4-d]pyrimidin-7-yl)piperazin-1-yl)-2-(4-bromophenoxy)ethanone]
EC50 (hRV-2): 1.3 µg/mL (≈ 2.23 µM)
EC50 (hRV-70): 4.77 µg/mL (≈ 8.17 µM)
EC50 (hRV-85): 3.99 µg/mL (≈ 6.84 µM)
EC50 (hRV-86): 4.62 µg/mL (≈ 7.92 µM)
CC50 [1]: > 50 µg/mL
EC50 (hRV-15): 3.44 µg/mL (≈ 5.9 µM)
EC50 (hRV-29): 1.27 µg/mL (≈ 2.18 µM)
EC50 (hRV-42): 2.41 µg/mL (≈ 4.13 µM)
EC50 (hRV-45): 4.87 µg/mL (≈ 8.35 µM)
EC50 (hRV-39): 1.18 µg/mL (≈ 2.02 µM)
EC50 (hRV-14): 1.23 µg/mL (≈ 2.11 µM)
EC50 (hRV-9): 1.26 µg/mL (≈ 2.16 µM)
EC50 (hRV-41): 13 µg/mL (≈ 22.3 µM)
EC50 (hRV-63): 5.85 µg/mL (≈ 10 µM)
EC50 (hRV-72): 9.05 µg/mL (≈ 15.5 µM)

COC(=O)c1ccc(OCC(=O)N2CCN(c3nc(N)nc4sc(CCc5ccc(F)cc5)nc34)CC2)cc1 [Example 225, methyl 4-(2-(4-(5-amino-2-(4-fluorophenethyl)thiazolo[5,4-d]pyrimidin-7-yl)piperazin-1-yl)-2-oxoethoxy)benzoate]
EC50 (hRV-2): 1.12 µg/mL (≈ 2.03 µM)
EC50 (hRV-70): > 50 µg/mL
EC50 (hRV-85): 14.6 µg/mL (≈ 26.5 µM)
EC50 (hRV-86): > 50 µg/mL
CC50 [1]: 5.34 µg/mL (≈ 9.7 µM)
EC50 (hRV-15): > 50 µg/mL
EC50 (hRV-29): > 50 µg/mL
EC50 (hRV-42): > 50 µg/mL
EC50 (hRV-45): 43.1 µg/mL (≈ 78.3 µM)
EC50 (hRV-39): > 50 µg/mL
EC50 (hRV-14): > 50 µg/mL
EC50 (hRV-9): > 50 µg/mL
EC50 (hRV-41): > 50 µg/mL
EC50 (hRV-63): 39.7 µg/mL (≈ 72.1 µM)
EC50 (hRV-72): > 50 µg/mL

CCCCCc1nc2c(N3CCN(C(=O)COc4ccc(OC)cc4)CC3)nc(N)nc2s1 [Example 296, 1-(4-(5-amino-2-pentylthiazolo[5,4-d]pyrimidin-7-yl)piperazin-1-yl)-2-(4-methoxyphenoxy)ethanone]
EC50 (hRV-2): 0.19 µg/mL (≈ 0.404 µM)
EC50 (hRV-70): 2.53 µg/mL (≈ 5.38 µM)
EC50 (hRV-85): 0.64 µg/mL (≈ 1.36 µM)
EC50 (hRV-86): 17.8 µg/mL (≈ 37.7 µM)
CC50 [1]: > 50 µg/mL
EC50 (hRV-15): 0.44 µg/mL (≈ 0.935 µM)
EC50 (hRV-29): 0.09 µg/mL (≈ 0.191 µM)
EC50 (hRV-42): 4.25 µg/mL (≈ 9.03 µM)
EC50 (hRV-45): 4.13 µg/mL (≈ 8.78 µM)
EC50 (hRV-39): 0.04 µg/mL (≈ 0.085 µM)
EC50 (hRV-14): 9.93 µg/mL (≈ 21.1 µM)
EC50 (hRV-9): 0.2 µg/mL (≈ 0.425 µM)
EC50 (hRV-41): 7.02 µg/mL (≈ 14.9 µM)
EC50 (hRV-63): 0.71 µg/mL (≈ 1.51 µM)
EC50 (hRV-72): 26.5 µg/mL (≈ 56.3 µM)

COc1cccc(CCc2nc3c(N4CCN(C(=O)COc5ccc(Cl)cc5)CC4)nc(N)nc3s2)c1 [Example 255, 1-(4-(5-amino-2-(3-methoxyphenethyl)thiazolo[5,4-d]pyrimidin-7-yl)piperazin-1-yl)-2-(4-chlorophenoxy)ethanone]
EC50 (hRV-2): 0.65 µg/mL (≈ 1.21 µM)
EC50 (hRV-70): 4.02 µg/mL (≈ 7.46 µM)
EC50 (hRV-85): 2.18 µg/mL (≈ 4.04 µM)
EC50 (hRV-86): 2.61 µg/mL (≈ 4.84 µM)
CC50 [1]: > 50 µg/mL
EC50 (hRV-15): 1.82 µg/mL (≈ 3.38 µM)
EC50 (hRV-29): 0.6 µg/mL (≈ 1.11 µM)
EC50 (hRV-42): 1.1 µg/mL (≈ 2.04 µM)
EC50 (hRV-45): 2.34 µg/mL (≈ 4.34 µM)
EC50 (hRV-39): 0.5 µg/mL (≈ 0.928 µM)
EC50 (hRV-14): 0.53 µg/mL (≈ 0.983 µM)
EC50 (hRV-9): 0.52 µg/mL (≈ 0.965 µM)
EC50 (hRV-41): 20.8 µg/mL (≈ 38.6 µM)
EC50 (hRV-63): 3.31 µg/mL (≈ 6.14 µM)
EC50 (hRV-72): > 50 µg/mL

Nc1nc(N2CCN(C(=O)COc3cccc([N+](=O)[O-])c3)CC2)c2nc(CCc3ccc(F)cc3)sc2n1 [Example 131, 5-amino-2-[2-(4-fluorophenyl)ethyl]-7-(4-[2-(3-nitrophenoxy)acetyl]piperazin-1-yl)-thiazolo[5,4-d]pyrimidine]
EC50 (hRV-2): 2.5 µg/mL (≈ 4.65 µM)
EC50 (hRV-70): 15.3 µg/mL (≈ 28.4 µM)
EC50 (hRV-85): 7.26 µg/mL (≈ 13.5 µM)
EC50 (hRV-86): 7.07 µg/mL (≈ 13.2 µM)
CC50 [1]: > 50 µg/mL
EC50 (hRV-15): > 50 µg/mL
EC50 (hRV-29): > 50 µg/mL
EC50 (hRV-42): 12.3 µg/mL (≈ 22.8 µM)
EC50 (hRV-45): 9.05 µg/mL (≈ 16.8 µM)
EC50 (hRV-39): 1.52 µg/mL (≈ 2.83 µM)
EC50 (hRV-14): > 50 µg/mL
EC50 (hRV-9): 2.11 µg/mL (≈ 3.93 µM)
EC50 (hRV-41): > 50 µg/mL
EC50 (hRV-63): 34.5 µg/mL (≈ 64.3 µM)
EC50 (hRV-72): 37.7 µg/mL (≈ 70.2 µM)
